# Biological target: T1, PD-1/PD-L1 protein/protein interaction (recombinant human PD-L1 protein (19-238), recombinant human PD-1 protein (25-167)) (Homo sapiens, UniProt Q9NZQ7)
# T1 construct: Recombinant human PD-L1 protein (19-238) with a His-tag at the C-terminus; purchased AcroBiosystems PD1-H5229 (PD-L1); PD1-H5257 (PD-1)
# Assay: PD-1/PD-L1 Homogeneous Time-Resolved Fluorescence (HTRF) Binding Assay
# Settings: 25° C., PBS buffer pH 7.4, 40 minutes preincubation with inhibitors
# Procedure: Example A. PD-1/PD-L1 Homogeneous Time-Resolved Fluorescence (HTRF) Binding Assay
# The assays were conducted in a standard black 384-well polystyrene plate with a final volume of 20 μL. Inhibitors were first serially diluted in DMSO and then added to the plate wells before the addition of other reaction components. The final concentration of DMSO in the assay was 1%. The assays were carried out at 25° C. in the PBS buffer (pH 7.4) with 0.05% Tween-20 and 0.1% BSA. Recombinant human PD-L1 protein (19-238) with a His-tag at the C-terminus was purchased from AcroBiosystems (PD1-H5229). Recombinant human PD-1 protein (25-167) with Fc tag at the C-terminus was also purchased from AcroBiosystems (PD1-H5257). PD-L1 and PD-1 proteins were diluted in the assay buffer and 10 μL was added to the plate well. Plates were centrifuged and proteins were preincubated with inhibitors for 40 minutes. The incubation was followed by the addition of 10 μL of HTRF detection buffer supplemented with Europium cryptate-labeled anti-human IgG (PerkinElmer-AD0212) specific for Fc and anti-His antibody conjugated to SureLight®-Allophycocyanin (APC, PerkinElmer-AD0059H). After centrifugation, the plate was incubated at 25° C. for 60 min. before reading on a PHERAstar FS plate reader (665 nm/620 nm ratio). Final concentrations in the assay were […], 10 nM PD-L1, 1 nM europium anti-human IgG and 20 nM anti-His-Allophycocyanin. IC50 determination was performed by fitting the curve of percent control activity versus the log of the inhibitor concentration using the GraphPad Prism 5.0 software.
# T1 sequence (Q9NZQ7 19-238): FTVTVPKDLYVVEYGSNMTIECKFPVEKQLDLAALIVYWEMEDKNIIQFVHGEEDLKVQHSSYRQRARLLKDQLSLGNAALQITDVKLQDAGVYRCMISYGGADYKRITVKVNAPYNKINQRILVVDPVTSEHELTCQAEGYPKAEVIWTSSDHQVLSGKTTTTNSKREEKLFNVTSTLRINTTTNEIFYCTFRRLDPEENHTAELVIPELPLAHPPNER
structure (smiles),measurement,value
"N#Cc1c(NC(=O)c2nc3c(s2)CNCC3)cccc1-c1ccc2c(c1)OCCO2 [Example 1, N-[2-cyano-3-(2,3-dihydro-1,4-benzodioxin-6-yl)phenyl]-4,5,6,7-tetrahydro[1,3]thiazolo[5,4-c]pyridine-2-carboxamide]",IC50,≤ 100 nM
"N#Cc1c(NC(=O)c2nc3c(s2)CNCC3)cccc1-c1ccccc1 [Example 2, N-(2-cyanobiphenyl-3-yl)-4,5,6,7-tetrahydro[1,3]thiazolo[5,4-c]pyridine-2-carboxamide]",IC50,≤ 100 nM
"Cn1ncc2c(-c3cccc(NC(=O)c4nc5c(s4)CNCC5)c3C#N)cccc21 [Example 3, N-[2-cyano-3-(1-methyl-1H-indazol-4-yl)phenyl]-4,5,6,7-tetrahydro[1,3]thiazolo[5,4-c]pyridine-2-carboxamide]",IC50,≤ 100 nM
"N#Cc1c(NC(=O)c2nc3c(s2)CNCC3)cccc1-c1ccccc1F [Example 4, N-(2-cyano-2′-fluorobiphenyl-3-yl)-4,5,6,7-tetrahydro[1,3]thiazolo[5,4-c]pyridine-2-carboxamide]",IC50,≤ 100 nM
"COc1cccc(-c2cccc(NC(=O)c3nc4c(s3)CNCC4)c2C#N)c1F [Example 5, N-(2-cyano-2′-fluoro-3′-methoxybiphenyl-3-yl)-4,5,6,7-tetrahydro[1,3]thiazolo[5,4-c]pyridine-2-carboxamide]",IC50,≤ 100 nM
"N#Cc1c(NC(=O)c2nc3c(s2)CNCC3)cccc1-c1ccc2c(c1)OCC2 [Example 6, N-[2-cyano-3-(2,3-dihydro-1-benzofuran-6-yl)phenyl]-4,5,6,7-tetrahydro[1,3]thiazolo[5,4-c]pyridine-2-carboxamide]",IC50,≤ 100 nM
"N#Cc1c(NC(=O)c2nc3c(s2)CNCC3)cccc1C1=CCCCC1 [Example 7, N-(2-cyano-3-cyclohex-1-en-1-ylphenyl)-4,5,6,7-tetrahydro[1,3]thiazolo[5,4-c]pyridine-2-carboxamide]",IC50,≤ 100 nM
"N#Cc1c(NC(=O)c2nc3c(s2)CNCC3)cccc1C1CCCCC1 [Example 8, N-(2-cyano-3-cyclohexylphenyl)-4,5,6,7-tetrahydro[1,3]thiazolo[5,4-c]pyridine-2-carboxamide]",IC50,100 to 500 nM
"N#Cc1c(NC(=O)c2nc3c(s2)CNCC3)cccc1-c1c(F)cccc1F [Example 9, N-(2-cyano-2′,6′-difluorobiphenyl-3-yl)-4,5,6,7-tetrahydro[1,3]thiazolo[5,4-c]pyridine-2-carboxamide]",IC50,≤ 100 nM
"N#Cc1c(NC(=O)c2cc3n(n2)CCNC3)cccc1-c1ccc2c(c1)OCCO2 [Example 10, N-[2-cyano-3-(2,3-dihydro-1,4-benzodioxin-6-yl)phenyl]-4,5,6,7-tetrahydropyrazolo[1,5-a]pyrazine-2-carboxamide]",IC50,100 to 500 nM
"N#Cc1c(NC(=O)c2cc3n(n2)CCN(CCO)C3)cccc1-c1ccc2c(c1)OCCO2 [Example 11, N-[2-cyano-3-(2,3-dihydro-1,4-benzodioxin-6-yl)phenyl]-5-(2-hydroxyethyl)-4,5,6,7-tetrahydropyrazolo[1,5-a]pyrazine-2-carboxamide]",IC50,100 to 500 nM
"Cn1c(C(=O)Nc2cccc(-c3ccc4c(c3)OCCO4)c2C#N)nc2c1CCNC2 [Example 12, N-[2-cyano-3-(2,3-dihydro-1,4-benzodioxin-6-yl)phenyl]-1-methyl-4,5,6,7-tetrahydro-1H-imidazo[4,5-c]pyridine-2-carboxamide]",IC50,≤ 100 nM
"Cn1c(C(=O)Nc2cccc(-c3ccc4c(c3)OCCO4)c2C#N)nc2c1CCN(CCO)C2 [Example 13, N-(2-cyano-3-(2,3-dihydrobenzo[b][1,4]dioxin-6-yl)phenyl)-5-(2-hydroxyethyl)-1-methyl-4,5,6,7-tetrahydro-1H-imidazo[4,5-c]pyridine-2-carboxamide]",IC50,≤ 100 nM
"N#Cc1c(NC(=O)c2nc3n(n2)CCNC3)cccc1-c1ccc2c(c1)OCCO2 [Example 14, N-[2-cyano-3-(2,3-dihydro-1,4-benzodioxin-6-yl)phenyl]-5,6,7,8-tetrahydro[1,2,4]triazolo[1,5-a]pyrazine-2-carboxamide]",IC50,500 to 10000 nM
"N#Cc1cccc(-c2cccc(NC(=O)c3nc4c(s3)CNCC4)c2C#N)c1F [Example 15, N-(2,3′-dicyano-2′-fluorobiphenyl-3-yl)-4,5,6,7-tetrahydro[1,3]thiazolo[5,4-c]pyridine-2-carboxamide]",IC50,100 to 500 nM
"COc1cccc(-c2cccc(NC(=O)c3nc4c(s3)CNCC4)c2C#N)c1 [Example 16, N-(2-cyano-3′-methoxybiphenyl-3-yl)-4,5,6,7-tetrahydrothiazolo[5,4-c]pyridine-2-carboxamide]",IC50,≤ 100 nM
"COc1cc(F)cc(-c2cccc(NC(=O)c3nc4c(s3)CNCC4)c2C#N)c1 [Example 17, N-(2-cyano-3′-fluoro-5′-methoxybiphenyl-3-yl)-4,5,6,7-tetrahydro[1,3]thiazolo[5,4-c]pyridine-2-carboxamide]",IC50,≤ 100 nM
"N#Cc1c(NC(=O)c2nc3c(s2)CNCC3)cccc1-c1ccccc1Cl [Example 18, N-(2′-chloro-2-cyanobiphenyl-3-yl)-4,5,6,7-tetrahydro[1,3]thiazolo[5,4-c]pyridine-2-carboxamide]",IC50,≤ 100 nM
"COc1cccc(-c2cccc(NC(=O)c3cn4c(n3)CNCC4)c2C#N)c1F [Example 19, N-(2-cyano-2′-fluoro-3′-methoxybiphenyl-3-yl)-5,6,7,8-tetrahydroimidazo[1,2-a]pyrazine-2-carboxamide]",IC50,≤ 100 nM
"Cc1c(NC(=O)c2nc3c(s2)CNCC3)cccc1-c1ccc2c(c1)OCCO2 [Example 20, N-[3-(2,3-dihydro-1,4-benzodioxin-6-yl)-2-methylphenyl]-4,5,6,7-tetrahydro[1,3]thiazolo[5,4-c]pyridine-2-carboxamide]",IC50,≤ 100 nM
"COc1cccc(-c2cccc(NC(=O)c3nc4c(s3)CNCC4)c2C)c1F [Example 21, N-(2′-fluoro-3′-methoxy-2-methylbiphenyl-3-yl)-4,5,6,7-tetrahydro[1,3]thiazolo[5,4-c]pyridine-2-carboxamide]",IC50,≤ 100 nM
"COc1cccc(-c2cccc(NC(=O)c3nc4c(n3C)CCNC4)c2C)c1F [Example 22, N-(2′-fluoro-3′-methoxy-2-methylbiphenyl-3-yl)-1-methyl-4,5,6,7-tetrahydro-1H-imidazo[4,5-c]pyridine-2-carboxamide]",IC50,≤ 100 nM
"Cc1c(NC(=O)c2nc3c(s2)CNCC3)cccc1-c1cccc2c1cnn2C [Example 23, N-[2-methyl-3-(1-methyl-1H-indazol-4-yl)phenyl]-4,5,6,7-tetrahydro[1,3]thiazolo[5,4-c]pyridine-2-carboxamide]",IC50,≤ 100 nM
"Cc1c(NC(=O)c2nc3c(s2)CNCC3)cccc1-c1cccc(CO)c1F [Example 24, N-[2′-fluoro-3′-(hydroxymethyl)-2-methylbiphenyl-3-yl]-4,5,6,7-tetrahydro[1,3]thiazolo[5,4-c]pyridine-2-carboxamide]",IC50,500 to 10000 nM
"Cc1c(NC(=O)c2nc3c(s2)CNCC3)cccc1-c1cccc2[nH]ncc12 [Example 25, N-[3-(1H-indazol-4-yl)-2-methylphenyl]-4,5,6,7-tetrahydro[1,3]thiazolo[5,4-c]pyridine-2-carboxamide]",IC50,≤ 100 nM
"Cc1c(NC(=O)c2nc3c(s2)CNCC3)cccc1-c1ccccc1 [Example 26, N-(2-methylbiphenyl-3-yl)-4,5,6,7-tetrahydro[1,3]thiazolo[5,4-c]pyridine-2-carboxamide]",IC50,≤ 100 nM
"Cc1c(NC(=O)c2nc3c(s2)CN(CCO)CC3)cccc1-c1ccccc1 [Example 27, 5-(2-hydroxyethyl)-N-(2-methylbiphenyl-3-yl)-4,5,6,7-tetrahydrothiazolo[5,4-c]pyridine-2-carboxamide]",IC50,≤ 100 nM
"Cc1c(NC(=O)c2nc3c(s2)CN(CC(=O)O)CC3)cccc1-c1ccccc1 [Example 28, 2-(2-(2-methylbiphenyl-3-ylcarbamoyl)-6,7-dihydrothiazolo[5,4-c]pyridin-5(4H)-yl)acetic acid]",IC50,≤ 100 nM
"Cc1c(NC(=O)c2nc3c(s2)CNCC3)cccc1-c1ccc2cn(C)nc2c1 [Example 29, N-[2-methyl-3-(2-methyl-2H-indazol-6-yl)phenyl]-4,5,6,7-tetrahydro[1,3]thiazolo[5,4-c]pyridine-2-carboxamide]",IC50,100 to 500 nM
"Cc1c(NC(=O)c2nc3c(s2)CNCC3)cccc1-c1ccccc1C#N [Example 30, N-(2′-cyano-2-methylbiphenyl-3-yl)-4,5,6,7-tetrahydro[1,3]thiazolo[5,4-c]pyridine-2-carboxamide]",IC50,100 to 500 nM
"Cc1c(NC(=O)c2nc3c(s2)CNCC3)cccc1-c1ccccc1CC#N [Example 31, N-[2′-(cyanomethyl)-2-methylbiphenyl-3-yl]-4,5,6,7-tetrahydro[1,3]thiazolo[5,4-c]pyridine-2-carboxamide]",IC50,500 to 10000 nM
"COc1cccc(-c2cccc(NC(=O)c3nc4c(s3)CNCC4)c2Cl)c1F [Example 32, N-(2-chloro-2′-fluoro-3′-methoxybiphenyl-3-yl)-4,5,6,7-tetrahydro[1,3]thiazolo[5,4-c]pyridine-2-carboxamide]",IC50,≤ 100 nM
